In PubChem BioAssay (NCI):
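Exposure lasted 48 hours, with cells grown in 96-well plates and compounds tested at five concentrations. TGI: total growth inhibition.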

Key:
Assay in all cases: inhibition of tumour cell growth, NCI panel, 48 h
[1] = test system: 786-0 renal
[2] = test system: A498 renal
[3] = test system: A549 NSCLC
[4] = test system: ACHN renal
[5] = test system: CAKI-1 renal
[6] = test system: CCRF-CEM leukemia
[7] = test system: COLO 205 colon
[8] = test system: DLD-1 colon
[9] = test system: DMS 273 small cell lung
[10] = test system: EKVX NSCLC
[11] = test system: HCC-2998 colon
[12] = test system: HCT-116 colon
[13] = test system: HCT-15 colon
[14] = test system: HL-60(TB) leukemia
[15] = test system: HOP-18 NSCLC
[16] = test system: HOP-62 NSCLC
[17] = test system: HT29 colon
[18] = test system: IGROV1 ovarian
[19] = test system: K-562 leukemia
[20] = test system: KM12 colon
[21] = test system: KM20L2 colon
[22] = test system: LOX IMVI melanoma
[23] = test system: LXFL 529 NSCLC
[24] = test system: M14 melanoma
[25] = test system: M19-MEL melanoma
[26] = test system: MALME-3M melanoma
[27] = test system: MOLT-4 leukemia
[28] = test system: NCI-H226 lung
[29] = test system: NCI-H23 lung
[30] = test system: NCI-H460 lung
[31] = test system: NCI-H522 lung
[32] = test system: OVCAR-3 ovarian
[33] = test system: OVCAR-4 ovarian
[34] = test system: OVCAR-5 ovarian
[35] = test system: OVCAR-8 ovarian
[36] = test system: RPMI-8226 leukemia
[37] = test system: RXF 393 renal
[38] = test system: RXF-631 renal
[39] = test system: SF-295 CNS
[40] = test system: SF-539 CNS
[41] = test system: SK-MEL-2 melanoma
[42] = test system: SK-MEL-5 melanoma
[43] = test system: SK-OV-3 ovarian
[44] = test system: SN12C renal
[45] = test system: SNB-19 CNS
[46] = test system: SNB-75 CNS
[47] = test system: SNB-78 CNS
[48] = test system: SR leukemia
[49] = test system: SW-620 colon
[50] = test system: TK-10 renal
[51] = test system: U251 CNS
[52] = test system: UACC-257 melanoma
[53] = test system: UACC-62 melanoma
[54] = test system: UO-31 renal
[55] = test system: XF 498 CNS
[56] = test system: DMS 114 small cell lung
[57] = test system: SF-268 CNS
[58] = test system: SK-MEL-28 melanoma

Measured: TGI

Cc1ccc(S(=O)(=O)N(C=O)N=C2CCN(Cc3ccccc3)CC2)cc1
not listed: [56] | [57] | [58]
> 100 µM: all other assays above

CC(C)(C)NNC(=O)CCn1[nH]c(=O)c(Cl)c(Cl)c1=O
not listed: [12] | [42] | [47] | [48]
> 100 µM: all other assays above
